According to the NIST ThermoML archive (doi:10.1016/j.jct.2017.03.032):

Conditions: Liquid, Closed cell (Static) method

F/C=C/C(F)(F)F [trans-1,3,3,3-tetrafluoropropene]
Conditions | vapor or sublimation pressure [kPa]
280.15 K | 276.5
285.18 K | 328.2
290.12 K | 386
295.11 K | 452.1
300.15 K | 526.7
305.15 K | 609.7
310.34 K | 706.3
315.18 K | 805
320.1 K | 916.6
325.17 K | 1043.5
330.13 K | 1178.1
